Measurements reported in patent publication US6552080B1, “Fungicidal compounds having a fluorovinyl-or fluoropropenyl-oxyphenyloxime moiety and process for the preparation thereof” (Korea Research Institute of Chemical Technology, priority 1999, dated 2003).
Like-named read-outs stand apart in the source and are kept apart here.

Assays:
Rhizoctonia solani AG-1 = test: Fungicidal activity against Rice Sheath Blight (RSB) disease; settings: Rice Sheath Blight
Experimental: To examine fungicidal activity of the compounds of the present invention, each of the compounds listed in Table 3 and 4 was dissolved in 10% acetone to a concentration of 250 ppm, and Tween-20 was added thereto to a concentration of 250 or 500 ppm. 50 ml of the resulting solution was sprayed on leaves of a host plant. The plant was kept at room temperature for 24 hours to let the solvent evaporate, and then, a pathogenic fungus was inoculated thereonto. The plant was held in a humidity chamber for 24 hours, transferred to an plant growth room kept at 20 to 27° C. and a relative humidity of 60 to 80% and kept to induce disease. […] This procedure was repeated twice for each test. 10% Acetone solution containing 250 ppm of Tween-20 was used as a control.
The fungicidal activity of the compound of the present invention is repressed by a control value (C.V.) calculated as; [formula]
Rhizoctonia solani AG-1 was cultured on a PDA medium (potato 200 g, dextrose 20 g, agar 20 g and distilled water 1 ? for 3 days and the agar disc(diameter 0.6 cm) was inoculated and cultured on sterilized wheat bran medium in a 1 L bottle at 26 to 28° C. for 7 days. A mycelial mass was ground using a homogenizer, inoculated uniformly on soil of a pot wherein a Nakdong rice plant having 2 or 3 leaves and an height of 5 cm grew, and kept in humidity polyvinyl chamber for 5 days to induce RSB. L.A. on a leaf sheath was measured to calculate an C.V.

Erysiphae graminis = test: Fungicidal activity against Barley Powdery Mildew (BPM) disease; format: in vivo; settings: Barley Powdery Mildew
Puccinia recondita = test: Fungicidal activity against Wheat Leaf Rust (WLR) disease; format: in vivo; settings: Wheat Leaf Rust
Botrytis cinerae = test: Fungicidal activity against Cucumber Gray Mold Rot (CGM) disease; format: in vivo; settings: Cucumber Gray Mold Rot; concentration 50 ppm
[1] = tested on: Pyricularia oryzae Carvara KA301; format: in vivo; settings: Rice Blast
Phytophthora infestans = format: in vivo; settings: Tomato Late Blight; concentration 50 ppm

| SMILES | RSB (Fungicidal Activities, C.V.) (Rhizoctonia solani AG-1; concentration 2 ppm) [%] | RSB (Fungicidal Activities, C.V.) (Rhizoctonia solani AG-1; concentration 50 ppm) [%] | BPM (Fungicidal Activities, C.V.) (Erysiphae graminis; concentration 2 ppm) [%] | BPM (Fungicidal Activities, C.V.) (Erysiphae graminis; concentration 50 ppm) [%] | WLR (Fungicidal Activities, C.V.) (Puccinia recondita; concentration 2 ppm) [%] | WLR (Fungicidal Activities, C.V.) (Puccinia recondita; concentration 50 ppm) [%] | CGM (Fungicidal Activities, C.V.) (Botrytis cinerae) [%] | RCV (Fungicidal Activities, C.V.) ([1]; concentration 2 ppm) [%] | RCV (Fungicidal Activities, C.V.) ([1]; concentration 50 ppm) [%] | TLB (Fungicidal Activities, C.V.) (Phytophthora infestans) [%] | RSB (Fungicidal Activities, C.V.) (Rhizoctonia solani AG-1; concentration 10 ppm) [%] | BPM (Fungicidal Activities, C.V.) (Erysiphae graminis; concentration 10 ppm) [%] | WLR (Fungicidal Activities, C.V.) (Puccinia recondita; concentration 10 ppm) [%] | RCV (Fungicidal Activities, C.V.) ([1]; concentration 10 ppm) [%] |
| --- | --- | --- | --- | --- | --- | --- | --- | --- | --- | --- | --- | --- | --- | --- |
| CNC(=O)C(=NOC)c1ccccc1CON=Cc1cccc(OC(F)=C(c2ccccc2)C(F)(F)F)c1 [Compound 139] | 10 | 20 | 97 | 98 | 93 | 98 | 0 | 53 | 100 | 46 |  |  |  |  |
| CNC(=O)C(=NOC)c1ccccc1CON=Cc1cccc(OC(F)=C(c2cccc(C)c2)C(F)(F)F)c1 [Compound 140] |  | 64 |  | 86 | 0 | 100 | 0 | 86 | 97 | 0 |  |  |  |  |
| CNC(=O)C(=NOC)c1ccccc1CON=Cc1cccc(OC(F)=C(c2cccc(OC)c2)C(F)(F)F)c1 [Compound 143] |  | 58 | 0 | 93 | 36 | 90 | 0 | 83 | 100 | 0 |  |  |  |  |
| CCOc1ccc(C(=C(F)Oc2cccc(C=NOCc3ccccc3C(=NOC)C(=O)NC)c2)C(F)(F)F)cc1 [Compound 144] |  | 47 | 0 | 95 |  | 86 | 0 | 88 | 96 | 0 |  |  |  |  |
| CNC(=O)C(=NOC)c1ccccc1CON=Cc1cccc(OC(F)=C(c2ccc(F)cc2)C(F)(F)F)c1 [Compound 145] |  | 64 | 33 | 100 | 83 | 100 | 0 | 83 | 100 | 0 |  |  |  |  |
| COC=C(C(=O)OC)c1ccccc1CON=C(C)c1cccc(OC(F)=C(c2ccccc2)C(F)(F)F)c1 [Compound 150] | 55 | 92 | 100 | 100 | 95 | 100 | 44 | 83 | 100 | 50 | 65 | 100 | 100 | 100 |
| COC=C(C(=O)OC)c1ccccc1CON=C(C)c1cccc(OC(F)=C(c2cccc(C)c2)C(F)(F)F)c1 [Compound 151] | 35 | 95 | 98 | 100 | 86 | 100 | 24 | 93 | 100 | 12 | 55 | 100 | 95 | 99 |
| COC=C(C(=O)OC)c1ccccc1CON=C(C)c1cccc(OC(F)=C(c2ccc(C)cc2)C(F)(F)F)c1 [Compound 152] | 45 | 90 | 95 | 100 | 86 | 100 | 44 | 86 | 100 | 0 | 60 | 100 | 98 | 97 |
